From paper PMC6990966, “Treatment of Porphyromonas gulae infection and downstream pathology in the aged dog by lysine‐gingipain inhibitor COR388” (Pharmacology Research & Perspectives, 2020)
Like-named read-outs stand apart in the source and are kept apart here.

Experiments:
[1] = Plasma pharmacokinetics after oral administration in gelatin capsules; assay type: in vivo, Beagle dogs; conditions: Beagle, dog; for bioavailability: po, 0.5 mg/kg
Description: Aged Beagle dogs of both sexes ranging from 8 to 15 years of age, in generally good health and located in the Vivocore Inc dog colony, were utilized in this study. All procedures were reviewed and approved by Vivocore's Institutional Animal Care and Use Committee (IACUC) and were performed in accordance with the principles of the Animal for Research Act of Ontario and the guidelines of Canadian Council on Animal Care (CCAC). […] The detailed chemical synthesis and structure of compounds in the relevant series of lysine-gingipain inhibitors including COR388 can be found in PCT/2016/0061197. Detailed characterization of COR388 enzyme target binding, potency, and selectivity are previously described.1 Test article administered, COR388 HCl, was a solid powdered material. Dogs were dosed with neat compound hand-filled in gelatin capsules (size 1, Torpac) orally at the listed doses (free-base, corrected for salt form). All dogs utilized in studies were positive on previous BANA enzyme (BANAMet LLC, Ann Arbor, MI) testing of oral plaque samples (assay described below). In the first study, four dogs were dosed 10 mg kg^-1 q.d. with endpoints assessed after dosing and compared to those taken pre-dose in individual dogs. The second dose-response study was conducted with a randomized, blinded, matched-group design with 12 dogs. […] Groups were balanced for age, sex, weight, and baseline BANA test results to the extent possible. Dogs were group housed according to dosing group in compliance with the recommendations of the CACC. Dogs were fed a standard commercial dry diet daily in the evenings with water provided ad libitum but not within 30 minutes of the start of anesthetic procedures. For evaluation of pharmacokinetics parameters, approximately 2 mL of blood was collected at the indicated time points following test article administration into K2EDTA tubes and plasma was isolated for bioanalytical determination of plasma concentrations of COR388. A single intravenous dose of COR388 was administered in PBS at a dose of 1 mg kg^-1. Quantitation of COR388 in plasma samples following protein precipitation with mianserin added as an internal standard, was performed from the time points shown using a qualified LC-MS/MS method (AB Sciex 4000 QTrap). Plasma concentration versus time profiles were analyzed to determine pharmacokinetic parameters using noncompartmental methods (Phoenix® WinNonlin® 6.3, Pharsight Certara).

RgpB = assay: Rgp enzyme activity assay in SGP of dosed dogs; assay type: in vivo, Beagle dogs; conditions: oral 10 mg kg^−1 q.d. for 28 days
Description: (§1) Aged Beagle dogs of both sexes ranging from 8 to 15 years of age, in generally good health and located in the Vivocore Inc dog colony, were utilized in this study. All procedures were reviewed and approved by Vivocore's Institutional Animal Care and Use Committee (IACUC) and were performed in accordance with the principles of the Animal for Research Act of Ontario and the guidelines of Canadian Council on Animal Care (CCAC). Structure‐based design was used to develop a library of gingipain inhibitors, which were tested on purified Kgp and RgpB to assess potency and determine inhibition constants. The detailed chemical synthesis and structure of compounds in the relevant series of lysine‐gingipain inhibitors including COR388 can be found in PCT/2016/0061197. […] In the first study, four dogs were dosed 10 mg kg^−1 q.d. with endpoints assessed after dosing and compared to those taken pre‐dose in individual dogs. […]
For the detection of arginine‐gingipain (Rgp) activity, cysteine‐HCl was freshly added to RgpB buffer (100 mmol L^−1 Tris, 200 mmol L^−1 gly‐gly, 5 mmol L^−1 CaCl2) to a final concentration of 10 mmol L^−1 to produce a RgpB working enzyme assay buffer. […] After 50 μL of substrate solution was added, the plate was immediately read at 405 nm for 1 hour with interval of every 1.5 minutes read at 37°C and continuous shaking in Biotek Synergy 2 microplate reader. […]

[2] = system: periodontal disease (pocket depth); assay: Dental assessment of gingival pocket depth; assay type: in vivo, Beagle dogs; conditions: oral 0.5 mg kg^−1 b.i.d., day 90 vs baseline
Description: Aged Beagle dogs of both sexes ranging from 8 to 15 years of age, in generally good health and located in the Vivocore Inc dog colony, were utilized in this study. All procedures were reviewed and approved by Vivocore's Institutional Animal Care and Use Committee (IACUC) and were performed in accordance with the principles of the Animal for Research Act of Ontario and the guidelines of Canadian Council on Animal Care (CCAC). Structure‐based design was used to develop a library of gingipain inhibitors, which were tested on purified Kgp and RgpB to assess potency and determine inhibition constants. The detailed chemical synthesis and structure of compounds in the relevant series of lysine‐gingipain inhibitors including COR388 can be found in PCT/2016/0061197. Detailed characterization of COR388 enzyme target binding, potency, and selectivity are previously described.1 Test article administered, COR388 HCl, was a solid powdered material. Dogs were dosed with neat compound hand‐filled in gelatin capsules (size 1, Torpac) orally at the listed doses (free‐base, corrected for salt form). All dogs utilized in studies were positive on previous BANA enzyme (BANAMet LLC, Ann Arbor, MI) testing of oral plaque samples (assay described below). In the first study, four dogs were dosed 10 mg kg^−1 q.d. with endpoints assessed after dosing and compared to those taken pre‐dose in individual dogs. […]

[3] = parameters: method as in PMID 30746447; conditions: mice; cited from earlier work
P. gingivalis cultures = P. gingivalis cultures in vitro; cited from earlier work
Kgp = Kgp activity in GCF of dosed dogs using COR553 activity-based probe; assay type: in vivo, Beagle dogs
Description: Aged Beagle dogs of both sexes ranging from 8 to 15 years of age, in generally good health and located in the Vivocore Inc dog colony, were utilized in this study. All procedures were reviewed and approved by Vivocore's Institutional Animal Care and Use Committee (IACUC) and were performed in accordance with the principles of the Animal for Research Act of Ontario and the guidelines of Canadian Council on Animal Care (CCAC). Structure‐based design was used to develop a library of gingipain inhibitors, which were tested on purified Kgp and RgpB to assess potency and determine inhibition constants. The detailed chemical synthesis and structure of compounds in the relevant series of lysine‐gingipain inhibitors including COR388 can be found in PCT/2016/0061197. Detailed characterization of COR388 enzyme target binding, potency, and selectivity are previously described.1 Test article administered, COR388 HCl, was a solid powdered material. Dogs were dosed with neat compound hand‐filled in gelatin capsules (size 1, Torpac) orally at the listed doses (free‐base, corrected for salt form). All dogs utilized in studies were positive on previous BANA enzyme (BANAMet LLC, Ann Arbor, MI) testing of oral plaque samples (assay described below). In the first study, four dogs were dosed 10 mg kg^−1 q.d. with endpoints assessed after dosing and compared to those taken pre‐dose in individual dogs. The second dose‐response study was conducted with a randomized, blinded, matched‐group design with 12 dogs. Following baseline sample collections prior to dosing, animals were allocated to four dosing groups, n = 3 dogs per group as follows: vehicle (empty capsule), 0.15, 0.5, and 1.5 mg kg^−1 b.i.d (Q12h). Dosing continued for 28 days (0.15 and 1.5 mg kg^−1) or 90 days (vehicle and 0.5 mg kg^−1). Groups were balanced for age, sex, weight, and baseline BANA test results to the extent possible. Dogs were group housed according to dosing group in compliance with the recommendations of the CACC. Dogs were fed a standard commercial dry diet daily in the evenings with water provided ad libitum but not within 30 minutes of the start of anesthetic procedures.
Gingival Crevicular Fluid: GCF was collected from the gingival pockets at times following dosing ±30 minutes, as indicated. Eight sampling sites were identified per dog and four sites were used per timepoint. Sampling sites were isolated with a cotton roll and air‐dried. Gingival fluid collection strips (Periopaper™, Oraflow) were gently held with tweezers and placed into the pocket until resistance was felt. Strips were held in place for 30 seconds and then processed as described above for SGP isolation. […]

P. gulae = assay: qPCR detection of P. gulae load in oral samples of naturally infected aged dogs; assay type: in vivo, Beagle dogs
Description: as §1, with “constants.” for “constants. The detailed chemical synthesis and structure of compounds in the relevant series of lysine‐gingipain inhibitors including COR388 can be found in PCT/2016/0061197.”
Biofluids were evaluated for P. gulae load using a qPCR assay that was developed to specifically detect P. gulae 16S gene with the following primers and probe: Forward primer […], Reverse primer […], and probe […]. […] Saliva was evaluated with either 2 μL neat saliva or purified DNA from 2 μL saliva. Buccal cells were evaluated with either 2 μL neat buccal cell slurry or purified DNA from 2 μL buccal cell slurry. SGP was evaluated with 2 μL from the elution in B‐Per. GCF was evaluated with either purified DNA from 50 μL of B‐Per eluted GCF or neat 2 μL elution.

[4] = Plasma pharmacokinetics after single intravenous dose; assay type: in vivo, Beagle dogs; conditions: both sexes, Beagle, dog, single intravenous dose 1 mg kg^−1 in PBS, mean ± SD

Question: Which results are given for `NCCCC[C@H](NC(=O)C1CCCC1)C(=O)COc1c(F)ccc(F)c1F` [COR388]?
Answer: Cmax ([1]; oral 0.15 mg kg^−1 b.i.d. group, single dog with minimal Kgp inhibition, read-out: plasma Cmax of the one dog with lowest exposure): 2.73 ng/mL; Tmax ([1]; both sexes, 0.5 mg kg^-1 oral, single oral dose (Figure 2C), mean ± SD): 2.17 ± 1.76 h; half-life ([1]; both sexes, 0.5 mg kg^-1 oral, single oral dose (Figure 2C), mean ± SD, read-out: Apparent t1/2 (converted)): 2.42 ± 0.236 h; concentration at 12 h ([1]; both sexes, 12 hours after oral dosing of 0.5 mg kg^−1, read-out: mean trough plasma concentration (Cmin)): 2.67 ng/mL; Cmax ([1]; both sexes, oral 0.15 mg kg^−1 b.i.d. group, read-out: mean Cmax in dose group): 9.74 ng/mL; AUC(0-t) ([1]; both sexes, oral 0.5 mg kg^−1 administered b.i.d. for 6 days, read-out: AUC0-12 h): 265 ng·h/mL; Cmax ([1]; both sexes, oral 0.5 mg kg^−1 administered b.i.d. for 6 days, read-out: Cmax): 66.6 ng/mL; bioavailability ([1]; both sexes, 0.5 mg kg^-1 oral, single oral dose (Figure 2C), mean ± SD, read-out: F): 105 ± 28.8%; bioavailability ([1]; both sexes, oral doses of 0.5 mg kg^−1 and higher, read-out: bioavailability (%F)): 100%; active RgpB in SGP versus baseline day 1 (RgpB): reduction; mean average pocket depth, all individual pockets ([2]; P = .0156): reduction; mean average pocket depth, pockets ≥3 mm at baseline or end of study, per dog ([2]; P = .0332): significant reduction; brain penetration [3]: brain penetrant; drug resistance on chronic administration (P. gingivalis cultures): did not lead to drug resistance; inhibition of baseline Kgp activity (Kgp; oral 0.5 mg kg^−1, after a single dose): roughly 50%; Kgp activity compared to vehicle control (Kgp; oral 0.5 mg kg^−1 b.i.d. for 90 days): statistically significant reduction; inhibition of baseline Kgp activity (Kgp; oral 0.5 mg kg^−1 b.i.d., after 28 days of dosing): near complete inhibition; active Kgp available for COR553 probe binding (Kgp; oral 10 mg kg^−1 q.d., 2 hours after dosing on days 14 and 28): no active sites were available for probe binding; mean decrease in baseline P. gulae DNA (P. gulae; buccal cells, oral 10 mg kg^−1 once a day, after 14 days of dosing): > 80%; P. gulae bacterial load over time compared to vehicle control (P. gulae; oral 0.5 mg kg^−1 b.i.d. for 90 days, buccal cells (Figure 5A)): statistically significant reduction; half-life ([4]; read-out: elimination half-life (converted)): 3.5 ± 0.6 h; clearance ([4]; read-out: systemic clearance (CLS) (converted)): 35 mL/min/kg; Vd ([4]; read-out: volume distribution (Vss)): 5.2 ± 1.3 L/kg
